Holding throughout (experiment): relative viability (nuclei count vs DMSO), 5 days (fraction); higher = more cells survive
Compound in assay [1]: CN[C@@H]1C[C@H]2O[C@@](C)([C@@H]1OC)n1c3ccccc3c3c4c(c5c6ccccc6n2c5c31)C(=O)NC4 [Staurosporine] + CC(=O)c1c(C)c2cnc(Nc3ccc(N4CCNCC4)cn3)nc2n(C2CCCC2)c1=O [Palbociclib] (partner 0.5 µM)
In a few lines: (§1)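 Values are medians from duplicate plates. Each reflects relative viability, defined as the nuclei count of treated wells over that of vehicle wells. Lung cancer cell lines in 1536-well plates were pin-tool dosed one day after seeding with one drug alone or with a fixed anchor-drug dose plus five library-drug doses (not always all listed) in √10 steps, then fixed, stained and imaged at 4× after 5 days.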

Compound in assay [2]: CN[C@@H]1C[C@H]2O[C@@](C)([C@@H]1OC)n1c3ccccc3c3c4c(c5c6ccccc6n2c5c31)C(=O)NC4 [Staurosporine] + COc1cc2c(Oc3ccc(NC(=O)C4(C(=O)Nc5ccc(F)cc5)CC4)cc3F)ccnc2cc1OCCCN1CCOCC1 [Foretinib] (partner 0.25 µM)
In a few lines:
as §1

Compound in the assay “Sulindac + Olaparib”: CC1=C(CC(=O)O)c2cc(F)ccc2/C1=C\c1ccc([S+](C)[O-])cc1 [Sulindac] + O=C(c1cc(Cc2n[nH]c(=O)c3ccccc23)ccc1F)N1CCN(C(=O)C2CC2)CC1 [Olaparib] (partner 8 µM)
In a few lines:
as §1

Compound in assay [3]: O=c1[nH]cc(F)c(=O)[nH]1 [5-Fluorouracil] + Nc1ncn([C@H]2C[C@H](O)[C@@H](CO)O2)c(=O)n1 [Decitabine] (partner 2 µM)
The method, boiled down: as §1

With ChaGo-K-1, the relative viability in assay [1] (first compound 0.005 µM) turned out to be 0.886; in assay [1] (first compound 0.05 µM), 0.811; in assay [1] (first compound 0.1581 µM), 0.696; in assay [1] (first compound 0.5 µM) it was 0.701; in assay [2] (first compound 0.005 µM), 0.881; in assay [2] (first compound 0.01581 µM) it was 0.528. Besides, the relative viability amounted to 0.676 in assay [2] (first compound 0.05 µM); 0.223 in assay [2] (first compound 0.1581 µM); 0.188 in assay [2] (first compound 0.5 µM); 0.485 with Sulindac + Olaparib (first compound 0.08 µM); 0.359 in the assay with Sulindac + Olaparib (first compound 0.253 µM); 0.414 in the assay with Sulindac + Olaparib (first compound 0.8 µM). For the same cell line, the relative viability is 0.379 with Sulindac + Olaparib (first compound 2.53 µM); 0.449 with Sulindac + Olaparib (first compound 8 µM); 0.573 in assay [3] (first compound 0.02 µM); 0.519 in assay [3] (first compound 0.2 µM); 0.435 in assay [3] (first compound 0.6325 µM); 0.439 in assay [3] (first compound 2 µM).

As for EBC-1, the relative viability was 0.107 in assay [2] (first compound 0.005 µM); 0.102 in assay [2] (first compound 0.01581 µM); 0.103 in assay [2] (first compound 0.05 µM); 0.0621 in assay [2] (first compound 0.1581 µM); 0.0633 in assay [2] (first compound 0.5 µM); 0.846 with Sulindac + Olaparib (first compound 0.08 µM). For the same cell line, the relative viability with Sulindac + Olaparib (first compound 0.253 µM) was 0.643; with Sulindac + Olaparib (first compound 0.8 µM), 0.545; in the assay with Sulindac + Olaparib (first compound 2.53 µM) it was 0.748; with Sulindac + Olaparib (first compound 8 µM), 0.816.

Regarding EKVX, the relative viability came out at 0.266 in assay [1] (first compound 0.005 µM); 0.143 in assay [1] (first compound 0.01581 µM); 0.152 in assay [1] (first compound 0.05 µM); 0.168 in assay [1] (first compound 0.1581 µM); 0.0893 in assay [1] (first compound 0.5 µM); 0.355 in assay [2] (first compound 0.005 µM). Also, the relative viability in assay [2] (first compound 0.01581 µM) is 0.133; in assay [2] (first compound 0.05 µM) it was 0.379; in assay [2] (first compound 0.1581 µM), 0.246; in assay [2] (first compound 0.5 µM), 0.123; with Sulindac + Olaparib (first compound 0.08 µM), 0.736; with Sulindac + Olaparib (first compound 0.253 µM), 0.929. The relative viability in the assay with Sulindac + Olaparib (first compound 0.8 µM) was determined as 0.718; in the assay with Sulindac + Olaparib (first compound 2.53 µM), 0.803; in the assay with Sulindac + Olaparib (first compound 8 µM) it was 0.93; in assay [3] (first compound 0.02 µM) it was 0.297.

In the case of EMC-BAC-2, the relative viability in assay [1] (first compound 0.005 µM) was found to be 0.383; in assay [1] (first compound 0.01581 µM), 0.242; in assay [1] (first compound 0.05 µM), 0.213; in assay [1] (first compound 0.1581 µM), 0.228; in assay [1] (first compound 0.5 µM) it was 0.207; in assay [2] (first compound 0.005 µM), 0.397. The relative viability in assay [2] (first compound 0.01581 µM) amounted to 0.344; in assay [2] (first compound 0.05 µM) it was 0.252; in assay [2] (first compound 0.1581 µM) it was 0.23; in assay [2] (first compound 0.5 µM), 0.106; in the assay with Sulindac + Olaparib (first compound 0.08 µM), 0.493; in the assay with Sulindac + Olaparib (first compound 0.253 µM), 0.488. Besides, the relative viability with Sulindac + Olaparib (first compound 0.8 µM) was 0.476; in the assay with Sulindac + Olaparib (first compound 2.53 µM), 0.46; with Sulindac + Olaparib (first compound 8 µM) it was 0.566; in assay [3] (first compound 0.02 µM), 1.01; in assay [3] (first compound 0.2 µM), 1.08; in assay [3] (first compound 0.6325 µM), 0.97. The relative viability in assay [3] (first compound 2 µM) stood at 1.01.

For EPLC-272H, the relative viability in assay [1] (first compound 0.005 µM) stood at 0.3; in assay [1] (first compound 0.01581 µM), 0.275; in assay [1] (first compound 0.05 µM), 0.193; in assay [1] (first compound 0.1581 µM), 0.157; in assay [1] (first compound 0.5 µM), 0.0846; in assay [2] (first compound 0.005 µM), 0.608. In addition, the relative viability in assay [2] (first compound 0.01581 µM) turned out to be 0.136; in assay [2] (first compound 0.05 µM), 0.174; in assay [2] (first compound 0.1581 µM) it was 0.0912; in assay [2] (first compound 0.5 µM) it was 0.121; with Sulindac + Olaparib (first compound 0.08 µM), 0.828; in the assay with Sulindac + Olaparib (first compound 0.253 µM), 0.852. Also, the relative viability with Sulindac + Olaparib (first compound 0.8 µM) was 0.72; with Sulindac + Olaparib (first compound 2.53 µM), 0.639; in the assay with Sulindac + Olaparib (first compound 8 µM), 0.727; in assay [3] (first compound 0.02 µM), 0.357; in assay [3] (first compound 0.2 µM) it was 0.305; in assay [3] (first compound 0.6325 µM), 0.224. Moreover, the relative viability in assay [3] (first compound 2 µM) stood at 0.22.

The values are drawn from the supplement of paper PMC10307832.
